Reference: US11285156B2, “Substituted piperazines as KRAS G12C inhibitors” (Amgen Inc., priority 2018, dated 2022)
Read-outs that look alike come from different tables or passages of the source.

Tests used:
[1] = biological target: GDP-bound KRAS protein (aa 1-169), containing both G12C and C118A amino acid substitutions (Homo sapiens (Human), UniProt P01116, C118A/G12C); assay: Coupled nucleotide exchange assay (SOS-mediated nucleotide exchange, AlphaScreen); assay type: biochemical; settings: read-out: Coupled exchange IC50 (5 min; μM); 5 min compound pre-incubation
[2] = tested on: Phosphorylation of ERK1/2 in MIA PaCa-2 cells; assay: Phospho-ERK1/2 MSD assay in MIA PaCa-2 cells; assay type: cell-based; settings: Homo sapiens, MIA PaCa-2, 2 h, read-out: p-ERK IC50 (2 h, MiaPaCa-2; μM)
Summary of the method: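 Phospho-ERK1/2 measured by MSD electrochemiluminescence kit in RIPA lysates of MIA PaCa-2 cells. Cells were treated with compound titrations for 2 or 4 h at 37 °C, 5% CO2, followed by a 10 min pulse of 10 ng/mL EGF.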

[3] = tested on: Phosphorylation of ERK1/2 in A549 cells; assay: Phospho-ERK1/2 MSD assay in A549 cells; assay type: cell-based; settings: Homo sapiens, A549, 2 h, read-out: p-ERK IC50 (2 h, A549; μM)
Summary of the method: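 Dose-response treatment lasted 2 or 4 h in RPMI 1640/10% FBS at 37 °C. EGF-stimulated (10 ng/mL, 10 min) ERK1/2 phosphorylation was then quantified in cell lysates with a Meso Scale Discovery phospho-ERK1/2 assay.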

[4] = 2 h compound treatment, MIA PaCa-2 cells, EGF stimulated
[5] = 2 h compound treatment, A549 cells, EGF stimulated

Chain of GDP-bound KRAS protein (aa 1-169), containing both G12C and C118A amino acid substitutions (P01116 other isoform, or with tags, fused parts or gaps G12C/C118A): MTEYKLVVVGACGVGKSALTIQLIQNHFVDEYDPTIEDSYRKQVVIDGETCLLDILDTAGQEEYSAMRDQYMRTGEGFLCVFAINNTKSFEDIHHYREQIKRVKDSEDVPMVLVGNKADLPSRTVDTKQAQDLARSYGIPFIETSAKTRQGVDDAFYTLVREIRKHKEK

Compound	IC50 [1] [µM]	IC50 [2, 4] [µM]	IC50 [3, 5] [µM]	IC50 [2] [µM]	IC50 [3] [µM]
C=CC(=O)N1CCN(c2nc(=O)n(CC(C)(C)C)c3nc(-c4ccccc4F)c(Cl)cc23)C(CC#N)C1 (stereo not drawn) [Example 145-3, 2-[1-[6-Chloro-1-(2,2-dimethypropyl)-7-(2-fluorophenyl)-2-oxo-pyrido[2,3-d]pyrimidin-4-yl]-4-prop-2-enoyl-piperazin-2-yl]acetonitrile]	3.82	10	4.41		
C=CC(=O)N1C[C@H](C)N(c2nc(=O)n3c4nc(c(Cl)cc24)-c2ccccc2OC/C=C/Cc2ccccc2-3)C[C@H]1C [Example 146-4, 20-chloro-23-((2S,5R)-2,5-dimethyl-4-(2-propenoyl)-1-piperazinyl)-12-oxa-1,24,27-triazapentacyclo[17.6.2.0~2,7~.0~13,18~.0~22,26~]heptacosa-2,4,6,9,13,15,17,19,21,23,26-undecaen-25-one]	8.13	4.19	> 7.5		
C=CC(=O)N1C[C@H](C)N(c2nc(=O)n(-c3c(C(C)C)ncnc3C(C)C)c3nc(-c4ccc(F)cc4F)c(F)cc23)C[C@H]1C [Example 153, 7-(2,4-Difluorophenyl)-1-(4,6-diisopropylpyrimidin-5-yl)-4-[(2S,5R)-2,5-dimethyl-4-prop-2-enoyl-piperazin-1-yl]-6-fluoro-pyrido[2,3-d]pyrimidin-2-one]	0.38	0.264	> 7.5		
C=CC(=O)N1C[C@H](C)N(c2nc(=O)n(-c3c(C(C)C)nc(OC)nc3C(C)C)c3nc(-c4ccccc4F)c(Cl)cc23)C[C@H]1C [Example 154, 6-Chloro-1-(4,6-diisopropyl-2-methoxy-pyrimidin-5-yl)-4-[(2S,5R)-2,5-dimethyl-4-prop-2-enoyl-piperazin-1-yl]-7-(2-fluorophenyl)pyrido[2,3-d]pyrimidin-2-one]	0.062	0.049	6.96		
C=CC(=O)N1C[C@H](C)N(c2nc(=O)n(-c3c(C(C)C)nc(C#N)nc3C(C)C)c3nc(-c4ccccc4F)c(Cl)cc23)C[C@H]1C [Example 155, 5-[6-Chloro-4-[(2S,5R)-2,5-dimethyl-4-prop-2-enoyl-piperazin-1-yl]-7-(2-fluorophenyl)-2-oxo-pyrido[2,3-d]pyrimidin-1-yl]-4,6-diisopropyl-pyrimidine-2-carbonitrile]	0.104	0.063	2.59		
C=CC(=O)N1C[C@H](C)N(c2nc(=O)n(-c3c(C(C)C)nc(OCCOC)nc3C(C)C)c3nc(-c4ccccc4F)c(Cl)cc23)C[C@H]1C [Example 156, 4-((2S,5R)-4-Acryloyl-2,5-dimethylpiperazin-1-yl)-6-chloro-1-(4,6-diisopropyl-2-(2-methoxyethoxy)pyrimidin-5-yl)-7-(2-fluorophenyl)pyrido[2,3-d]pyrimidin-2(1H)-one]	0.369	0.148	> 7.5		
C=CC(=O)N1C[C@H](C)N(c2nc(=O)n(-c3c(C(C)C)nc(OCCN(C)C)nc3C(C)C)c3nc(-c4ccccc4F)c(Cl)cc23)C[C@H]1C [Example 157, 4-((2S,5R)-4-Acryloyl-2,5-dimethylpiperazin-1-yl)-6-chloro-1-(2-(2-(dimethylamino)ethoxy)-4,6-diisopropylpyrimidin-5-yl)-7-(2-fluorophenyl)pyrido[2,3-d]pyrimidin-2(1H)-one]	0.064	0.07	> 7.5		
C=CC(=O)N1C[C@H](C)N(c2nc(=O)n(-c3c(C(C)C)nc(S(=O)(=O)CCC)nc3C(C)C)c3nc(-c4ccccc4F)c(Cl)cc23)C[C@H]1C [Example 158, 4-((2S,5R)-4-Acryloyl-2,5-dimethylpiperazin-1-yl)-6-chloro-1-(4,6-diisopropyl-2-(propylsulfonyl)pyrimidin-5-yl)-7-(2-fluorophenyl)pyrido[2,3-d]pyrimidin-2(1H)-one]	0.189	0.191	3.83		
C=CC(=O)N1C[C@H](C)N(c2nc(=O)n(-c3c(C(C)C)nc(C=C)nc3C(C)C)c3nc(-c4ccccc4F)c(Cl)cc23)C[C@H]1C [Example 159, 4-((2S,5R)-4-Acryloyl-2,5-dimethylpiperazin-1-yl)-6-chloro-1-(4,6-diisopropyl-2-vinylpyrimidin-5-yl)-7-(2-fluorophenyl)pyrido[2,3-d]pyrimidin-2(1H)-one]	0.046	0.119	3.04		
C=CC(=O)N1C[C@H](C)N(c2nc(=O)n(-c3c(C(C)C)nc(CN4CCC4)nc3C(C)C)c3nc(-c4ccccc4F)c(Cl)cc23)C[C@H]1C [Example 161, 1-[2-(Azetidin-1-ylmethyl)-4,6-diisopropyl-pyrimidin-5-yl]-6-chloro-4-[(2S,5R)-2,5-dimethyl-4-prop-2-enoyl-piperazin-1-yl]-7-(2-fluorophenyl)pyrido[2,3-d]pyrimidin-2-one]	0.294			0.061	> 7.5
C=CC(=O)N1C[C@H](C)N(c2nc(=O)n(-c3c(C(C)C)nc(CN4CCOCC4)nc3C(C)C)c3nc(-c4ccccc4F)c(Cl)cc23)C[C@H]1C [Example 162, 6-Chloro-1-[4,6-diisopropyl-2-(morpholinomethyl)pyrimidin-5-yl]-4-[(2S,5R)-2,5-dimethyl-4-prop-2-enoyl-piperazin-1-yl]-7-(2-fluorophenyl)pyrido[2,3-d]pyrimidin-2-one]	0.133	0.078	> 7.5		
C=CC(=O)N1C[C@H](C)N(c2nc(=O)n(-c3c(C(C)C)nc(CN4CCCC4)nc3C(C)C)c3nc(-c4ccccc4F)c(Cl)cc23)C[C@H]1C [Example 163, 6-Chloro-1-[4,6-diisopropyl-2-(pyrrolidin-1-ylmethyl)pyrimidin-5-yl]-4-[(2S,5R)-2,5-dimethyl-4-prop-2-enoyl-piperazin-1-yl]-7-(2-fluorophenyl)pyrido[2,3-d]pyrimidin-2-one]	0.127	0.055	> 7.5		
C=CC(=O)N1C[C@H](C)N(c2nc(=O)n(-c3c(C(C)C)nc(C)nc3C(C)C)c3nc(-c4ccccc4F)c(Cl)cc23)C[C@H]1C [Example 167, 6-Chloro-1-(4,6-diisopropyl-2-methyl-pyrimidin-5-yl)-4-[(2S,5R)-2,5-dimethyl-4-prop-2-enoyl-piperazin-1-yl]-7-(2-fluorophenyl)pyrido[2,3-d]pyrimidin-2-one]	0.052	0.083	> 7.5		
C=CC(=O)N1C[C@H](C)N(c2nc(=O)n(-c3c(C(C)C)nc(C4CC4)nc3C(C)C)c3nc(-c4ccccc4F)c(Cl)cc23)C[C@H]1C [Example 168, 6-Chloro-1-(2-cyclopropyl-4,6-diisopropyl-pyrimidin-5-yl)-4-[(2S,5R)-2,5-dimethyl-4-prop-2-enoyl-piperazin-1-yl]-7-(2-fluorophenyl)pyrido[2,3-d]pyrimidin-2-one]	0.096	0.198	4.34		
C=CC(=O)N1C[C@H](C)N(c2nc(=O)n(-c3c(C(C)C)nc(CN4CCN(C)CC4)nc3C(C)C)c3nc(-c4ccccc4F)c(Cl)cc23)C[C@H]1C [Example 170, 6-Chloro-1-[4,6-diisopropyl-2-[(4-methylpiperazin-1-yl)methyl]pyrimidin-5-yl]-4-[(2S,5R)-2,5-dimethyl-4-prop-2-enoyl-piperazin-1-yl]-7-(2-fluorophenyl)pyrido[2,3-d]pyrimidin-2-one]	0.064	0.077	> 7.5		
